Test results: patent publication US20020182749A1, “Sample evaporative control” (ACLARA BioSciences, Inc., priority 1999, published 2002)
Read-outs that look alike come from different tables or passages of the source.

Key:
[1] = target: CYP1A2 (Homo sapiens, UniProt P05177); assay: in vitro
Procedure: B: Inhibition in CYP450 1A2 Assay:
Make 500 M CEC substrate for 1A2.
For each of the dilutions of furafylline make Buffer Mix:
Add 5 μl of the buffer mix to both of the side wells of the channels. Because the solution contains Pluronic F68, the solution in the middle assay well rises to the top. Dilute CYP1A2 enzyme 2:1 with water.
Add 300 nl of diluted enzyme to assay (middle) well.
Incubate at 37° C. for 35 minutes.
Take RFU readings using Molecular Devices F-max plate reader. F-max settings: Filter pair 390/460; Int.20 ms; speed 10.

[2] = test system: alkaline phosphatase; assay: alkaline phosphatase inhibition study on capillary electrophoresis card, FDP substrate; type: biochemical; conditions: 1.3 mU/ml alkaline phosphatase, 3.33 μM FDP, increasing PNPP
Procedure: The experimental procedure was as follows: the assay well is covered by tape. 5 μl of buffer was added to the reservoirs. 500 nl of the fluorescein or assay mixture was pipetted into the assay well. For the alkaline phosphatase assay, enzyme and substrate with or without inhibitor was mixed in a tube and then 500 nl of the assay mixture was pipetted into the assay well. The detection was performed at 7 mm distance from the injector. The particular conditions for each determination are set forth with the figure.
FIG. 17 illustrates the alkaline phosphatase activity for the different incubation times. As shown in the electropherograms, two product peaks (the first peak is fluorescein mono phosphate and the 2nd peak is fluorescein) are well separated from each other. Additionally, the use of longer incubation time results in more conversion of FDP (fluorescein di-phosphate as a substrate) to the FMP (fluorescein mono-phosphate) and finally to fluorescein. FIG. 18 depicts a linear calibration curve for the alkaline phosphatase using the card. For the inhibition study, PNPP which is a non-fluorescent substrate for the alkaline phosphatase and competes with FDP which is a fluorescent substrate for the enzyme, is added to the assay mixture at a number of different concentrations.

[3] = test system: alkaline phosphatase; assay: competitive inhibition assay, alkaline phosphatase with AutoPhos substrate; type: biochemical
Procedure: The next study evaluated the system using a competitive inhibition assay, 4-Nitrophenyl phosphate (PNPP) (Sigma Chemical Co., St. Louis, Mo.) was used as a non-fluorescent substrate for alkaline phosphatase (20 femtomoles) competing with the AutoPhos substrate. The channel was rinsed with AutoPhos buffer and filled with […] AutoPhos substrate. Into the sample port was introduced 100 nl of PNPP at concentrations varying from 0 to 10 mM and the fluorescent signal was determined at different reaction time points.
The channel was rinsed with AutoPhos buffer and then filled with about 10 μl of 1 mM AutoPhos substrate. 50 nl of alkaline phosphatase was then dispensed into the sample port. The amount of enzyme dispensed into the sample port increased from 31.25 attomole to 62.5 femtomoles by a factor of 2. Enzyme solutions of different concentrations were prepared in individual wells of a 96-well microtitre plate. Fluorescence was excited at 480 nm±20 nm and emission collected at 520±20 nm. The signals were recorded at different time points, 0, 5, 10, 15, up to 35 minutes.
The next assay was a competitive inhibition assay using the following protocol: 4-Nitrophenyl phosphate (PNPP) was used as a non-fluorescent substrate for competing for alkaline phosphatase with AutoPhos substrate. After rinsing the channels with AutoPhos buffer, the channel was filled with 1 mM AutoPhos substrate. 100 nl of PNPP was dispensed at different concentrations ranging form 0 to 60 mM. The fluorescent signal was measured at different reaction time points. The fluorescent signal as a function of different inhibitor concentrations is tabulated as following.

[4] = test system: alkaline phosphatase; assay: alkaline phosphatase inhibition in device ports, fluorescein diphosphate substrate; type: biochemical; conditions: 30 nl 0.1 nM enzyme
Description: The upper plate is about 1 mm in height and the lower plate is also about 1 mm in height. The port for introducing solutions is 1 mm in diameter and about 900 to 950 μm in height, while the channel substantially extends the remaining length of the upper sheet. The channel was varied from about 0.2 mm to 3.0 mm in width, where the interface between the port or well and the channel varied, with either the port or the channel determining the area of interface. The reservoirs have a diameter of about 2 mm. The channels were treated with 2N sodium hydroxide for 5 mins. using a vacuum pump to ensure that the basic solution extends through the channels and reservoirs. The ports or wells appear to be unaffected by this treatment, so that the channels and reservoirs have a hydrophilic surface, while the ports have a hydrophobic surface. One or more of the ports are used in each of the studies. Common to each of the experiments is to fill the device with 10 μl of 25 μM fluorescein diphosphate in 50 mM Tris buffer (pH 10.0) added to each of the inlet reservoirs, after prewetting the device.
In the next study, the effect of enzyme inhibitor was investigated. The channel was 1 mm in width. […] The fluorescence development is monitored with a CCD camera. Fluorescence is substantially confined to the ports and the fluorescent signal is related to the concentration of inhibitor introduced into the port.

[5] = target: rhodamine-streptavidin (Streptomyces avidinii, UniProt P22629); assay: FRET binding inhibition, fluorescein-biotin / rhodamine-streptavidin, read at 600 nm; conditions: fluorescein-biotin 50 μM, rhodamine-streptavidin 25 μM, varying biotin
Sequence of rhodamine-streptavidin (P22629 25-183): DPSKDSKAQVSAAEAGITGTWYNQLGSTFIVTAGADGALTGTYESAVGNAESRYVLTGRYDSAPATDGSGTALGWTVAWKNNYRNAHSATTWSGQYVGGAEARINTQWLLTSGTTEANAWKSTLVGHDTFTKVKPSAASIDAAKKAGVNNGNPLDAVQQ
Procedure: In another series of studies binding assays were performed using fluorescence resonance energy transfer. The procedure employed is as follows. The channel was rinsed and filled with 25 μl of rhodamine labeled streptavidin and 100 nl of fluorescein labeled biotin dispensed in the sample port. The concentration of the antigen varied from 0 to 100 μM by 2-fold dilutions. The signal detection system was as described, except that emission was detected at 600±20 nm. The energy transfer increased corresponding to the increase in antigen. The study was repeated varying the amount of labeled streptavidin while keeping the biotin-fluorescein at 25 μM. The background FRET signal contributed by rhodamine-streptavidin alone was substantially negligible, when the concentration of rhodamine-streptavidin was greater than about 2 μM. The following tables provide the results for the two studies.
In the next study, the effect of inhibitor on the observed signal was investigated. Fluorescein-biotin was maintained at 50 μM and rhodamine-streptavidin at 25 μM. the signal was read at 600±20 nm at varying concentrations of biotin as a binding inhibitor, with 100 nl of the binding inhibitor being added to the sample port.

[6] = target: T1, rhodamine-labeled streptavidin (Streptomyces avidinii, UniProt P22629); assay: inhibition of antigen-receptor binding, fluorescein-biotin / rhodamine-labeled streptavidin, read at 520 nm
T1 construct: purchased Molecular Probe
T1 sequence (P22629 25-183): as above
Procedure: In the next study, the channel was filled with varying concentrations of biotin in the range of 0 to 5 μM and 100 nl of rhodamine-labeled streptavidin (625 nM) followed by 100 nl of 1.0 μM fluorescein-biotin added to the sample port. After incubating for 60 min., the signal was detected at 520±20 nm. The results are reported as fraction inhibition. The following tables provide the results.
Using the above reagents and protocol, an inhibition assay was performed. The protocol was to fill the channel with 0, 30, 60, 180, 240, 500, 600, 1000, 5000 […] of biotin, respectively, followed by dispensing 100 nl of rhodamine labeled receptor into the sample port. After dispensing 100 nl of 1.0 μM fluorescein labeled antigen into the sample port, the reaction mixture was incubated for 60 minutes. The fluorescence was recorded by exciting at 480±20 nm and reading the emission at 520 nm±20 nm As the inhibitor concentration increased, the fluorescence intensity increased, indicating an increased inhibition. The increase in the fluorescent signal as a function of inhibitor concentration was converted to the percentage of inhibition.

[7] = read-out: Fraction of Inhibition

Sequence of CYP1A2 (P05177 whole entry): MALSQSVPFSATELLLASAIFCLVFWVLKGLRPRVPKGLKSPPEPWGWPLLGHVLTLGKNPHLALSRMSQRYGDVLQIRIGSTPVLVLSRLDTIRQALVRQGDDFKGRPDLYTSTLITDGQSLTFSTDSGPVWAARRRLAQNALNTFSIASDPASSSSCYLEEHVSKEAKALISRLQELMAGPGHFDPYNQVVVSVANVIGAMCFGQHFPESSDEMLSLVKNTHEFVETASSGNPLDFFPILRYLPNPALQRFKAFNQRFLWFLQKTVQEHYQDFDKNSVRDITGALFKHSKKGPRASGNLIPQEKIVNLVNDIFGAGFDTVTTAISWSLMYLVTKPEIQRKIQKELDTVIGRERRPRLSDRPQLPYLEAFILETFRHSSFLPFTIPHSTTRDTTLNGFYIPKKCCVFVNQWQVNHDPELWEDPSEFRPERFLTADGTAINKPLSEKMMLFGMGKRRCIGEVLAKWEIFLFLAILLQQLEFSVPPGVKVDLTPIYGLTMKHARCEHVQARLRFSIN

Cc1nc2c([nH]1)c(=O)n(C)c(=O)n2Cc1ccco1 [furafylline]
inhibition at 35 min, 0.133 µM [1]: 2% | inhibition at 35 min, 0.665 µM [1]: 31% | inhibition at 35 min, 1.33 µM [1]: 64% | inhibition at 35 min, 6.65 µM [1]: 72% | inhibition at 35 min, 13.3 µM [1]: 75% | inhibition at 35 min, 66.5 µM [1]: 77% | inhibition at 35 min, 133 µM [1]: 78%

O=[N+]([O-])c1ccc(OP(=O)(O)O)cc1 [PNPP, 4-Nitrophenyl phosphate]
effect on FDP alkaline phosphatase activity [2]: reduction of FDP alkaline phosphates activity | Fluorescent Signal ([3]; Inhibitor conc. 0.001 mM): 4.5 ×103 | Fluorescent Signal ([3]; Inhibitor conc. 0.0025 mM): 4.0 ×103 | Fluorescent Signal ([3]; Inhibitor conc. 0.005 mM): 4.0 ×103 | Fluorescent Signal ([3]; Inhibitor conc. 0.01 mM): 3.5 ×103 | Fluorescent Signal ([3]; Inhibitor conc. 0.02 mM): 2.6 ×103 | Fluorescent Signal ([3]; Inhibitor conc. 0.3125 mM): 2.0 ×103 | Fluorescent Signal ([3]; Inhibitor conc. 0.625 mM): 1.6 ×103 | Fluorescent Signal ([3]; Inhibitor conc. 1.25 mM): 1.6 ×103 | Fluorescent Signal ([3]; Inhibitor conc. 5 mM): 1.6 ×103 | Fluorescent Signal ([3]; Inhibitor conc. 10 mM): 1.5 ×103 | Fluorescence Signal ([3]; [Inhibitor] 0.001 mM): 4527 RFU | Fluorescence Signal ([3]; [Inhibitor] 0.0025 mM): 4000 RFU | Fluorescence Signal ([3]; [Inhibitor] 0.005 mM): 4000 RFU | Fluorescence Signal ([3]; [Inhibitor] 0.01 mM): 3500 RFU | Fluorescence Signal ([3]; [Inhibitor] 0.02 mM): 2600 RFU | Fluorescence Signal ([3]; [Inhibitor] 0.3125 mM): 2000 RFU | Fluorescence Signal ([3]; [Inhibitor] 0.625 mM): 1600 RFU | Fluorescence Signal ([3]; [Inhibitor] 1.25 mM): 1600 RFU | Fluorescence Signal ([3]; [Inhibitor] 5 mM): 1600 RFU | Fluorescence Signal ([3]; [Inhibitor] 10 mM): 1500 RFU | Fluorescence Signal ([3]; [Inhibitor] 60 mM): 750 RFU

Cc1ncc(COP(=O)(O)O)c(C=O)c1O [pyridoxal phosphate]
fluorescence development in port ([4]; 30 nl of 25 μM inhibitor): only moderately inhibited | fluorescence development in port ([4]; 30 nl of 250 μM inhibitor, at 30 mins): still very faint

O=C(O)CCCC[C@@H]1SC[C@@H]2NC(=O)N[C@@H]21 [biotin, D(+)-Biotin]
energy transfer (FRET signal at 600 nm) [5]: decreased with increase of binding inhibitor | inhibition at 0.03 µM ([6]; read-out: % of Inhibition): 3.85% | inhibition at 0.06 µM ([6]; read-out: % of Inhibition): 3.1% | inhibition at 0.18 µM ([6]; read-out: % of Inhibition): 5% | inhibition at 0.24 µM ([6]; read-out: % of Inhibition): 5.14% | inhibition at 0.5 µM ([6]; read-out: % of Inhibition): 22.4% | inhibition at 0.6 µM ([6]; read-out: % of Inhibition): 36.6% | inhibition at 1 µM ([6]; read-out: % of Inhibition): 95% | inhibition at 5 µM ([6]; read-out: % of Inhibition): 100% | inhibition at 0.03 µM [6, 7]: 3.85% | inhibition at 0.06 µM [6, 7]: 3.1% | inhibition at 0.18 µM [6, 7]: 5% | inhibition at 0.24 µM [6, 7]: 5.14% | inhibition at 0.5 µM [6, 7]: 22.4% | inhibition at 0.6 µM [6, 7]: 36.6% | inhibition at 1 µM [6, 7]: 95% | inhibition at 5 µM [6, 7]: 100%
